Data as given in US20090170867A1, “TRPV1 ANTAGONISTS INCLUDING SULFONAMIDE SUBSTITUENT AND USES THEREOF” (Shionogi & Co., Ltd., priority 2007, published 2009).

Target: T1, human TRPV1 (Homo sapiens, UniProt Q8NER1)
T1 construct: using primers designed surrounding the complete hTRPV1 open reading frame; expressed in transfected cells; host or cells: CHO-K1 cells stably transfected with pcDNA3.1(-)-hVR1 plasmid
Experiment: Capsaicin-based assay, Protocol 2 (TRPV1/CHO cells, Fluo-4, FLIPR)
Type: cell-based
Conditions: capsaicin 100 nM final, mean ± SEM, number of trials in parentheses, read-out: TRPV1 IC50 Potency, Human Capsaicin CHO (hCAP-CHO)
Text: The TRPV1/CHO cell line was generated as described below. […] The resulting PCR products were purified from agarose gels using Gel Band Purification Kit (GE Healthcare Bioscience) and were subcloned into pCR-Blunt vector (Invitrogen). The cloned cDNA was fully sequenced using a fluorescent dye-terminator reagent (BigDye Terminator ver3.1 Cycle Sequencing Kit, Applied Biosystems) and ABI Prism 3100 genetic analyzer (Applied Biosystems). The pCR-Blunt vector containing the hTRPV1 cDNA was subjected to restriction digestion with EcoRI. The restriction fragment was subcloned into expression vector pcDNA3.1 (-) (Invitrogen) and named pcDNA3.1 (-)-hVR1 plasmid. The sequence of the cDNA encoding TRPV1 is available at GenBank accession number AJ277028. […] The cells were transfected with the pcDNA3.1 (-)-hVR1 plasmid using FuGENE6 (Roche) according to the manufacturer's protocol. 24 hr after transfection, neomycin-resistant cells were selected using 1 mg/mL G418 (Nacalai Tesque). […] The cells expressing hTRPV1 were cultured in the growth medium supplemented with 1 mg/mL G418. […] Subsequently, the cells were loaded by incubation in 0.1 mL of wash buffer containing Fluo-4 at 3 μM final concentration. After 1 hour, the cells were washed twice with 0.2 mL wash buffer and resuspended in 0.1 mL wash buffer. The plates were then transferred to a Fluorescence Imaging Plate Reader (Molecular Devices). Fluorescence intensity was monitored for 15 seconds to establish a baseline. […] The final concentration of the compound was adjusted to range from 100 μM to 1.5625 μM. […] Data were collected over the entire time course and analyzed using Excel and the curve-fitting formula GraphPad Prism.

T1 sequence (Q8NER1 whole entry): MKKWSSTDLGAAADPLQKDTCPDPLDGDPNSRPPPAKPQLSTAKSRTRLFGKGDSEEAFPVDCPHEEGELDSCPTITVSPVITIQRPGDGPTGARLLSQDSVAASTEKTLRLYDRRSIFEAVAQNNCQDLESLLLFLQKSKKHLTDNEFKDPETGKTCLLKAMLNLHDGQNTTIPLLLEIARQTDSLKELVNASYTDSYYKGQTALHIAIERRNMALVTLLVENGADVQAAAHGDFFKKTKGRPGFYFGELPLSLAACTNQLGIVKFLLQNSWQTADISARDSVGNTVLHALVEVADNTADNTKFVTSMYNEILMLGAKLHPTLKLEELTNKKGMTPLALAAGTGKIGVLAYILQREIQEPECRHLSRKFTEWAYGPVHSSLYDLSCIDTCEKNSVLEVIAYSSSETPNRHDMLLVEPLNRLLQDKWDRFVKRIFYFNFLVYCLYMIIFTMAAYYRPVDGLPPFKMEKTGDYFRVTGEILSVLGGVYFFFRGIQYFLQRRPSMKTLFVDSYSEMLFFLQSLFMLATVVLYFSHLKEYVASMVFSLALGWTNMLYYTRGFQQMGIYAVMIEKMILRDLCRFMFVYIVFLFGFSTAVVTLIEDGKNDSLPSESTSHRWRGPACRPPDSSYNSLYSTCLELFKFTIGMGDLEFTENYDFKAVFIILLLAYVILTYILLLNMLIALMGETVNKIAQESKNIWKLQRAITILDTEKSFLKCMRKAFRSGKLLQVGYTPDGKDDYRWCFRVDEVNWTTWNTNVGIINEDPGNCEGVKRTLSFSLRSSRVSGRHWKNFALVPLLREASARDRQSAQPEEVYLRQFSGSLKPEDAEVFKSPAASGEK

Row | Compound | IC50
1 | CC(C)c1cc(NC(=O)N2CC=C(c3ncccc3Cl)CC2)ccc1OC(F)(F)F [Compound 205] | > 25000 nM
2 | O=C(Nc1ccc(C(F)(F)F)cn1)N1CC=C(c2ncc([C@H](O)CO)cc2F)CC1 [Compound K4] | 210 ± 19.5 nM
3 | O=C(Nc1ccc(OC(F)(F)F)c(Cl)c1)N1CC=C(c2ncc([C@H](O)CO)cc2Cl)CC1 [Compound H2] | 118 ± 22.1 nM
4 | O=C(Nc1nc2ccc(Cl)cc2[nH]1)N1CCC(F)(c2ncc([C@H](O)CO)cc2Cl)CC1 [Compound N4] | 1310 ± 220 nM
5 | CN1CCCc2ccc(NC(=O)N3CC=C(c4ncccc4F)CC3)cc21 [Compound K5] | 2750 ± 542 nM
6 | CS(=O)(=O)NCc1cnc(C2=CCN(C(=O)Nc3ccc(C(F)(F)F)cc3)CC2)c(Cl)c1 [Compound M4] | 471 ± 127 nM
7 | COc1cc(NC(=O)N2CC=C(c3ncc([C@H](O)CO)cc3Cl)CC2)ccc1C(F)(F)F [Compound A2] | 84.1 ± 11.2 nM
8 | O=C(Nc1nc2ccc(F)cc2s1)N1CC=C(c2ncc([C@H](O)CO)cc2F)CC1 [Compound L4] | 439 ± 140 nM
9 | O=C(Nc1ccc(S(=O)(=O)N2CCCC2)c(C(F)(F)F)c1)N1CC=C(c2ncc([C@@H](O)CO)cc2Cl)CC1 [Compound C3] | 541 ± 216 nM
10 | CC1(C)CCOc2cc(NC(=O)N3CC=C(c4ncc([C@H](O)CO)cc4F)CC3)ccc21 [Compound A4] | 55.1 ± 8.6 nM
11 | O=C(Nc1nc2ccc(Cl)cc2[nH]1)N1CCC(F)(c2ncc([C@@H](O)CO)cc2F)CC1 [Compound J5] | 1880 ± 634 nM
12 | O=C(Nc1ccc(C(F)(F)F)cn1)N1CC=C(c2ncc(CCO)cc2Cl)CC1 [Compound D6] | 621 ± 117 nM
13 | COCc1cnc(C2=CCN(C(=O)Nc3ccc(C(F)(F)F)cn3)CC2)c(Cl)c1 [Compound H3] | 1110 ± 134 nM
14 | O=C(Nc1nc2ccc(F)cc2s1)N1CCC(F)(c2ncc([C@H](O)CO)cc2F)CC1 [Compound F5] | 166 ± 24.7 nM
15 | COc1cc(NC(=O)N2CCC(F)(c3ncc([C@@H](O)CO)cc3F)CC2)ccc1C(F)(F)F [Compound D5] | 133 ± 29.1 nM
16 | COc1cc(NC(=O)N2CCC(F)(c3ncc([C@@H](O)CO)cc3Cl)CC2)ccc1C(F)(F)F [Compound E4] | 75.7 ± 12.8 nM
17 | CN(C)CC(O)c1cnc(C2=CCN(C(=O)Nc3ccc(C(F)(F)F)cc3)CC2)c(Cl)c1 (single isomer, unassigned) [Compound L5] | > 10000 nM
18 | COc1cc(C(F)(F)F)ccc1NC(=O)N1CC=C(c2ncc(CO)cc2Cl)CC1 [Compound J3] | 2940 ± 319 nM
19 | O=C(Nc1ccc(C(F)(F)F)c(-c2ccccc2)c1)N1CC=C(c2ncc(CO)cc2Cl)CC1 [Compound D3] | 565 ± 58.6 nM
20 | CC(C)(C)c1ccc(NC(=O)N2CC=C(c3ncc([C@@H](O)CO)cc3F)CC2)cc1 [Compound E1] | 18.5 ± 4.9 nM
21 | CC(C)S(=O)(=O)c1ccc(NC(=O)N2CC=C(c3ncc(CO)cc3Cl)CC2)cc1C(F)(F)F [Compound I3] | 1360 ± 337 nM
22 | O=C(Nc1ccc(C(F)(F)F)cc1)N1CCC(F)(c2ncc(C(O)CO)cc2Cl)CC1 (stereo not shown) [Compound A1] | 7 ± 1.8 nM

Next, values leading:

Row | IC50 | Compound
23 | 15.5 ± 3.5 nM | Cc1cc(NC(=O)N2CCC(F)(c3ncc([C@H](O)CO)cc3F)CC2)ccc1OC(F)(F)F [Compound R3]
24 | 451 ± 92.4 nM | O=C(Nc1ccc(C(F)(F)F)cc1)N1CCC(F)(c2ncc(C(O)(CO)CO)cc2Cl)CC1 [Compound T5]
25 | 1810 ± 302 nM | O=C(Nc1nc2ccc(Cl)cc2[nH]1)N1CC=C(c2ncc([C@H](O)CO)cc2Cl)CC1 [Compound P4]
26 | 34 ± 9.2 nM | COc1cc(NC(=O)N2CCC(F)(c3ncc([C@H](O)CO)cc3Cl)CC2)ccc1C(F)(F)F [Compound V3]
27 | 19.9 ± 6.9 nM | O=C(Nc1ccc(C(F)(F)F)c(F)c1)N1CCC(F)(c2ncc([C@@H](O)CO)cc2Cl)CC1 [Compound U5]
28 | 1520 ± 339 nM | O=C(Nc1ccc(C(F)(F)F)cc1)N1CC=C(c2ncc(C(CO)CO)cc2Cl)CC1 [Compound O4, 4-(3-chloro-5-(1,3-dihydroxypropan-2-yl)pyridin-2-yl)-N-(4-(trifluoromethyl)phenyl)-5,6-dihydropyridine-1(2H)-carboxamide]
29 | 226 ± 69.3 nM | O=C(Nc1ccc(Cl)c(C(F)(F)F)c1)N1CC=C(c2ncc([C@H](O)CO)cc2Cl)CC1 [Compound T2]
30 | 230 ± 65.5 nM | COc1cc(NC(=O)N2CC=C(c3ncc([C@@H](O)CO)cc3Cl)CC2)ccc1C(F)(F)F [Compound X5]
31 | 46 ± 11.3 nM | O=C(Nc1ccc(S(=O)(=O)C(F)(F)F)cc1)N1CC=C(c2ncc([C@@H](O)CO)cc2Cl)CC1 [Compound O3]
32 | 7030 ± 2060 nM | CN(C(=O)N1CC=C(c2ncc([C@H](O)CO)cc2Cl)CC1)c1ccc(C(F)(F)F)cc1 [Compound S4]
33 | 244 nM | Cc1cc2nc(NC(=O)N3CC=C(c4ncc([C@H](O)CO)cc4Cl)CC3)sc2cc1C [Compound O5]
34 | 50.5 ± 9.5 nM | O=C(Nc1ccc(S(=O)(=O)C(F)(F)F)cc1)N1CC=C(c2ncc([C@H](O)CO)cc2F)CC1 [Compound P1]
35 | 346 nM | Cc1cc(NC(=O)N2CC=C(c3ncc([C@@H](O)CO)cc3Cl)CC2)ccc1OC(F)(F)F [Compound R5]
36 | 49.5 nM | CC1(c2ncc([C@@H](O)CO)cc2F)CCN(C(=O)Nc2ccc(C(F)(F)F)c(Cl)c2)CC1 [Compound P5]
37 | 140 nM | O=C(Nc1nc2ccc(F)cc2s1)N1CCC(F)(c2ncc([C@@H](O)CO)cc2F)CC1 [Compound N5]
38 | 14.3 ± 1.3 nM | CC1(c2ncc([C@H](O)CO)cc2F)CCN(C(=O)Nc2ccc(C(F)(F)F)c(Cl)c2)CC1 [Compound Q3]
39 | 41.1 ± 17.8 nM | CCCOc1cc(NC(=O)N2CC=C(c3ncc([C@H](O)CO)cc3Cl)CC2)ccc1C(F)(F)F [Compound O1]
40 | 3280 ± 761 nM | O=C(Nc1nc2ccc(Cl)cc2[nH]1)N1CCC(F)(c2ncc([C@H](O)CO)cc2F)CC1 [Compound R4]
41 | 38.4 ± 8 nM | O=C(Nc1ccc(C(F)(F)F)cc1)N1CCC(F)(c2ncc([C@@H](O)CO)cc2F)CC1 [Compound X4]
42 | 2900 ± 302 nM | O=C(Nc1nc2ccc(Cl)cc2[nH]1)N1CC=C(c2ncc([C@@H](O)CO)cc2Cl)CC1 [Compound Q4]
43 | 51 ± 18.8 nM | O=C(Nc1nc2ccc(F)cc2s1)N1CC=C(c2ncc([C@H](O)CO)cc2Cl)CC1 [Compound R1]
